We go through 16 compounds from PMC10424183, “Determination of Ligand-Binding Affinity (Kd) Using Transverse Relaxation Rate (R2) in the Ligand-Observed ^1H NMR Experiment and Applications to Fragment-Based Drug Discovery” (Journal of Medicinal Chemistry, 2023).

For assay [1], the target named is T1, CRBN/DDB1 complex (Homo sapiens, UniProt Q96SW2).
T1 construct: made in house
Particulars: known Ki from biochemical binding assay, Δ39CRBN/ΔBPBDDB1 complex; cited from earlier work.

Assay [2] concerns the target T1, CRBN/DDB1 complex. Put plainly: R2KD ligand-observed 1H NMR assay (Kd from transverse relaxation rate R2). It counts as binding. On the procedure: 10 samples were prepared: samples 1–8 containing increasing ligand concentration (maintaining constant protein concentration); sample 9 and 10 containing only ligands at two different concentrations (protein absent). These two samples served as control samples to obtain the R2 values of free ligand. The final percentage of DMSO-d6 in all samples were identical to minimize possible impacts of DMSO-d6.
(§1) Here, we present how we used the R2KD assay to triage fragment hits against the CRBN/DDB1 complex. The CRBN/DDB1 complex is part of the E3 ligase system, with its thalidomide-binding domain (TBD) pocket critical for recruiting its substrate protein.[20] […] The R2 values of these fragments were measured at two ligand concentrations (200 and 50 μM) against 2 μM of the CRBN/DDB1 complex. This enabled preliminary ranking of hits. The hits with larger R2 differences rank higher. […] We also determined IC50 of the top 10 fragments using a FP based biochemical assay.[17]
(§2) The T2 relaxation experiment was acquired using pulse program CPMG with 3-9-19 pulse sequence with gradients incorporated to suppress the water signal.[22] Extra water suppression was achieved by adding presaturation during D1. The spin-echo period (delay-180°-delay) was set to 1 msec (d20 is 500 μs), and the relaxation delay (d1) was set to 10 s. The pseudo-2D experiment contained nine slices with spin-echo period repeated the following times: 4, 20, 100, 200, 300, 500, 700, 1000, and 2000.
Nonlinear regression analysis was carried out using GraphPad Prism 9.2.0. […] Three parameters: P, α, and Kd were in the equation with the initial value set at 1. […] CIs of parameters was calculated at 95% level using Asymmetrical (Profile-likelihood) CI.

For assay [3], the target named is T1, CRBN/DDB1 complex. Put plainly: R2 values of fragment hits at two ligand concentrations (preliminary ranking). It counts as binding. The note with it: 2 μM CRBN/DDB1 complex; for average R2, compound at 50 μM: 50 μM ligand; for average R2, compound at 200 μM: 200 μM ligand; for average R2, differences: R2 at 50 μM minus R2 at 200 μM. How it is done: as §1, §2

The target in assay [4] is T1, CRBN/DDB1 complex. Put plainly: FP based biochemical assay. It counts as binding. The note with it: top 10 fragments. The source says:
To determine the accuracy of Kd measured using the R2KD assay, we tested seven small molecule ligands (Figure 4) against three protein targets (BCL6, CRBN/DDB1 complex, and ERAP1) and compared their Kd values from the R2KD assay with known Ki values (Table 1) obtained in biochemical binding assays[15],[17],[18] or Kd value from the SPR binding assay.[19] We found good agreements between the Kd values and the Ki values, with most of them less than two-fold difference from those determined from biochemical or biophysical assays. […] We found the assay setup to be simple and positive controls unnecessary, making the approach suitable for new and challenging targets.
Here, we present how we used the R2KD assay to triage fragment hits against the CRBN/DDB1 complex. The CRBN/DDB1 complex is part of the E3 ligase system, with its thalidomide-binding domain (TBD) pocket critical for recruiting its substrate protein.[20] A fragment library, composed of around 1000 compounds, was screened using R2 relaxation edited ^1H-NMR experiments, with 19 fragments subsequently identified as competitive hits for the TBD pocket. The R2 values of these fragments were measured at two ligand concentrations (200 and 50 μM) against 2 μM of the CRBN/DDB1 complex. This enabled preliminary ranking of hits. The hits with larger R2 differences rank higher. […] We then measured the Kd values of the top 10 fragments using R2KD assay and confirmed the ranking order (Table 2). We also determined IC50 of the top 10 fragments using a FP based biochemical assay.[17]

[5] abbreviates: R2KD assay, Δ39CRBN/ΔBPBDDB1 complex, repeated three times (average), read-out: Kd.
Setting [6] is: fragment hit triage, top 10 fragments, read-out: R2KD assay Kd.

Where two headings read alike, the source gives them in different places. Bounds are passed on as bounds.

For orientation: Ki means a measure of affinity in units of concentration, obtained from inhibition or displacement. The term Kd denotes the constant that tells how readily two partners part at equilibrium. Usually IC50 stands for the midpoint of a concentration-inhibition curve. Lower therefore signals greater potency.

T1 sequence (Q96SW2 40-442 limits assumed, species assumed, one chain of several): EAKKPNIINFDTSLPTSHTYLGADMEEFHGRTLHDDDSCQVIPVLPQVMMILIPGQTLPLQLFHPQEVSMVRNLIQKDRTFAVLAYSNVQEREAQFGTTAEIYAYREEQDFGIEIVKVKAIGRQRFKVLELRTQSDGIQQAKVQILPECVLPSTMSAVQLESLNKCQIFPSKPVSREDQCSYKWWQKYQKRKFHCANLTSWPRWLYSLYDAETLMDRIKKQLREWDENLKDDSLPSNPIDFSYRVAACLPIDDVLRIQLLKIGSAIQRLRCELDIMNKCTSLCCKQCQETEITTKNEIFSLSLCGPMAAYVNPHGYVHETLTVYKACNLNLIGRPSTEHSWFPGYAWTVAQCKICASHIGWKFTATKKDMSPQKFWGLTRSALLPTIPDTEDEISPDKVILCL

Turning to `Cc1ccc(N2CC(=O)NC2=O)cc1` [CCT010354], the Ki at CRBN/DDB1 complex [1] is 294 µM. Further, at CRBN/DDB1 complex [2] (setting [5]), the Kd was 156 µM. In addition, the Kd on CRBN/DDB1 complex [2] (setting [6]) worked out at 122 µM. At CRBN/DDB1 complex [3], the “average R2, compound at 50 μM” value amounted to 4.9; the “average R2, compound at 200 μM” value amounted to 2; the “average R2, differences” value is recorded as 2.9. On CRBN/DDB1 complex [4], this compound yielded an IC50 of 240 µM.
Turning to `CNC(=O)c1nc(-c2ccccc2)n(-c2ccccc2)n1` [CCT226703], on CRBN/DDB1 complex [3], the “average R2, compound at 50 μM” value worked out at 1.5; the “average R2, compound at 200 μM” value came out at 1.4; the “average R2, differences” value is 0.1.
In the same order, the values of `CCOc1cccc(C2CC(=O)NC3=C2C(=O)CCC3)c1` (centres unmarked) [CCT228041] are 1.6, 1.5 and 0.1.
For the compound `N#CCCCN1C(=O)COc2ccc(Cl)cc21` [CCT228155], the Kd on CRBN/DDB1 complex [2] (setting [6]) turned out to be 798 µM. Also, at CRBN/DDB1 complex [3], the “average R2, compound at 50 μM” value was 3; the “average R2, compound at 200 μM” value was 2.2; the “average R2, differences” value is listed as 0.8. This compound returned an IC50 against CRBN/DDB1 complex [4] of 1640 µM.
In the same order, the values of `CCOc1ccc(C2CNC(=O)C2)cc1` (centres unmarked) [CCT239822] are 532 µM, 3.6, 2.4, 1.2 and 780 µM.
For `O=CN1CCN(Cc2c(F)cccc2Cl)CC1` [CCT240107], on CRBN/DDB1 complex [3], the “average R2, compound at 50 μM” value was determined as 1.6; the “average R2, compound at 200 μM” value was 1.5; the “average R2, differences” value amounted to 0.1.
The like results for `O=CN1CCN(Cc2cccc(Cl)c2)CC1` [CCT240121] were, in that order, 3.8, 3.3 and 0.4.
Consider `O=C(c1ccc(F)cc1)N1CCN(c2ccccc2)CC1` [CCT240195], for which, at CRBN/DDB1 complex [3], the “average R2, compound at 50 μM” value is 1.6; the “average R2, compound at 200 μM” value stood at 1.4; the “average R2, differences” value is given as 0.2.
Turning to `O=c1ccn(Cc2ccccc2)c(=O)[nH]1` [CCT240207], the Kd at CRBN/DDB1 complex [2] (setting [6]) is 86 µM. For the same compound, on CRBN/DDB1 complex [3], the “average R2, compound at 50 μM” value amounted to 3.4; the “average R2, compound at 200 μM” value worked out at 1.2; the “average R2, differences” value was 2.2. For the same compound, half-maximal inhibition on CRBN/DDB1 complex [4] (IC50) required 168 µM.
Take `COc1ccc(C(=O)N2CCN(c3ccccn3)CC2)cc1` [CCT240246]: on CRBN/DDB1 complex [3], the “average R2, compound at 50 μM” value is reported as 1.5; the “average R2, compound at 200 μM” value turned out to be 1.3; the “average R2, differences” value is 0.2.
Regarding `Nc1ccc(C(=O)NCC2COc3ccccc3O2)cc1` (centres unmarked) [CCT240545], the Kd on CRBN/DDB1 complex [2] (setting [6]) is 638 µM. Also, at CRBN/DDB1 complex [3], the “average R2, compound at 50 μM” value is given as 2; the “average R2, compound at 200 μM” value was 1.5; the “average R2, differences” value amounted to 0.5. Also, on CRBN/DDB1 complex [4], the IC50 was > 3000 µM.
Take `COC(=O)c1ccc2c(c1)NC(=O)CO2` [CCT240569]: at CRBN/DDB1 complex [1], the Ki was 140 µM. For the same compound, on CRBN/DDB1 complex [2] (setting [5]), the Kd amounted to 88 µM. The Kd at CRBN/DDB1 complex [2] (setting [6]) came to 72 µM. For the same compound, on CRBN/DDB1 complex [3], the “average R2, compound at 50 μM” value is reported as 7.2; the “average R2, compound at 200 μM” value came out at 2.6; the “average R2, differences” value amounted to 4.6. Also, on CRBN/DDB1 complex [4], the IC50 is 153 µM.
As to `CC(=O)N1CCN(S(=O)(=O)c2ccc(C(C)C)cc2)CC1` [CCT240867], on CRBN/DDB1 complex [3], the “average R2, compound at 50 μM” value amounted to 1.2; the “average R2, compound at 200 μM” value stood at 1.1; the “average R2, differences” value amounted to 0.1.
Take `CC(=O)Nc1cc2c(cc1C(=O)C(C)C)OCCO2` [CCT242848]: the Kd on CRBN/DDB1 complex [2] (setting [6]) was found to be 532 µM. Besides, at CRBN/DDB1 complex [3], the “average R2, compound at 50 μM” value is recorded as 3.8; the “average R2, compound at 200 μM” value was 2.5; the “average R2, differences” value was determined as 1.2. Also, on CRBN/DDB1 complex [4], the IC50 was > 3000 µM.
The like results for `COc1cc2c(cc1OC)C(c1cccc(O)c1)CC(=O)N2` (centres unmarked) [CCT242858] were, in that order, 1200 µM, 2.5, 2.1, 0.5 and 1370 µM.
For `N#CCCCn1c(=O)oc2ccc(Cl)cc21` [CCT242918], on CRBN/DDB1 complex [3], the “average R2, compound at 50 μM” value is 1.6; the “average R2, compound at 200 μM” value came out at 1.3; the “average R2, differences” value was 0.3.
